Measured values published in ChEMBL document CHEMBL1201862, “PubChem BioAssay data set” (2004).
The source made the active and inactive calls.

Key:
[1] = target: G-protein coupled receptor 55 (Homo sapiens, UniProt Q9Y2T6); assay: GPR55 antagonists blocking LPI-driven arrestin recruitment, primary screen, imaging, U2OS, beta-arrestin-GFP, LPI agonist (AID 2013); assay type: functional;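 also: antagonist potency measured as reduced agonist-driven arrestin aggregation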
[2] = Luminescence Cell-Based Dose Confirmation HTS to Identify Inhibitors of 5'UTR Stem-Loop Driven Alpha-Synuclein mRNA Translation in H4 Neuroglioblastoma Cells. [Related pubchem assays: 1827 (Project Summary), 1813 (Primary HTS)]; assay type: functional
[3] = Luminescence Cell-Based Dose Response HTS to Identify Inhibitors of Luciferase Translation or Activity in H4-C Neuroglioblastoma Cells. [Related pubchem assays: 1813 (Primary HTS), 1827 (Project Summary)]; assay type: functional
[4] = Luminescence Cell-Based Dose Response HTS to Identify Activators of 5'UTR Stem-Loop Driven Prion Protein mRNA Translation in H4-C Neuroglioblastoma Cells. [Related pubchem assays: 1829 (Project Summary), 1814 (Primary HTS)]; assay type: functional
[5] = inhibitors of SNCA 5'UTR-driven reporter translation, confirmation, H4 neuroglioma cells, luminescence (AID 1988); assay type: functional, cell-based
[6] = Luminescence Cell-Based Dose Response HTS to Identify Activators of Luciferase Translation or Activity in H4-C Neuroglioblastoma Cells. [Related pubchem assays: 1829 (Project Summary), 1814 (Primary HTS)]; assay type: functional
[7] = inhibitors of firefly luciferase expression or activity, dose response, H4 neuroglioma cells, luminescence (AID 1990); assay type: functional, cell-based
[8] = Luminescence Cell-Based Dose HTS Response to Identify Inhibitors of 5'UTR Stem-Loop Driven Prion Protein mRNA Translation in H4-C Neuroglioblastoma Cells. [Related pubchem assays (depositor defined):AID1814, AID1827]; assay type: functional
[9] = system: BJ; assay: cells; assay type: functional, cell-based; conditions: Homo sapiens
[10] = Luminescence Cell-Based Dose Response HTS to Identify Inhibitors of 5'UTR Stem-Loop Driven Prion Protein mRNA Translation in H4 Neuroglioblastoma Cells. [Related pubchem assays: 1827 (Project Summary), 1813 (Primary HTS)]; assay type: functional
[11] = system: BJ; assay: cytotoxicity toward BJ-TERT-LT-ST fibroblasts, dose response, cell-based, RAS-independent, luminescence (AID 1935); assay type: functional; conditions: Homo sapiens;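 also: BJ fibroblasts immortalized with TERT plus LT and ST oncogenes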
[12] = Luminescence Cell-Based Dose Retest to Confirm Activators of 5'UTR Stem-Loop Driven Alpha-Synuclein mRNA Translation in H4 Neuroglioblastoma Cells. [Related pubchem assays (depositor defined):AID1813, AID1829]; assay type: functional
[13] = cytotoxicity toward DRD oncogenic fibroblasts, dose response, cell-based, non-viral oncogenic, luminescence (AID 1934); assay type: functional; conditions: Homo sapiens
[14] = system: BJ; assay: cytotoxicity toward Ras-transformed BJeLR fibroblasts, dose response, cell-based, alamar blue fluorescence, cherrypicked samples (AID 2631); assay type: functional; conditions: Homo sapiens;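 also: confirmatory dose-response assay in RAS-dependent BJ fibroblasts engineered with TERT, LT and ST, with cytotoxicity read by fluorescence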
[15] = system: BJ; assay: cytotoxicity toward BJ-TERT fibroblasts, dose response, cell-based, RAS-independent, luminescence (AID 1933); assay type: functional; conditions: Homo sapiens
[16] = target: Trypsin (Sus scrofa, UniProt P00761); assay: porcine trypsin inhibitors, dose response, selectivity assay for Rce1 protease inhibitor project, biochemical, quenched peptide fluorescence, cherry-pick (AID 488789)
[17] = cytotoxicity toward NIH3T3 fibroblasts, dose response, counter-screen, cell-based, ATP luminescence, mouse fibroblasts (AID 2010); assay type: functional;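 also: cells exposed to compound for about 90 hours before reading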
[18] = target: CAAX prenyl protease 2 (Saccharomyces cerevisiae S288c, UniProt Q03530); assay type: biochemical
[19] = target: T1, Voltage-gated N-type calcium channel alpha-1B subunit/Amyloid beta A4 precursor protein-binding family A member 1 (Homo sapiens, UniProt Q00975+Q02410); assay type: protein assay
[20] = target: T1, Voltage-gated N-type calcium channel alpha-1B subunit/Amyloid beta A4 precursor protein-binding family A member 1; assay type: protein assay; remark: listed apart in the source
[21] = target: NACHT, LRR and PYD domains-containing protein 1 (Homo sapiens, UniProt Q9C000); assay: NALP1 inhibitors in yeast, dose response, luminescent (AID 488860); assay type: functional
[22] = system: Saccharomyces cerevisiae; assay: NALP1 inhibitor project selectivity study, Caspase-1/ASC signal blockade IC50 in S. cerevisiae (AID 488863); assay type: functional, organism-based
[23] = system: Salmon testes DNA; assay: DNA intercalators displacing acridine orange, dose response, artefact control for KSHV LANA DNA-binding inhibitor project, biochemical, fluorescence polarization, cherry-picked samples, set 2 (AID 504727); parameters: species or system Salmonidae
[24] = target: ORF 73 (Human herpesvirus 8, UniProt O40947); assay: inhibitors of C-LANA binding to LBS DNA, dose response, biochemical, fluorescence polarization, cherry-picked samples (AID 504725); parameters: species or system Human gammaherpesvirus 8;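 also: fluorescence polarization of a labeled DNA duplex reporting LANA DNA binding; potency is for inhibitors that block LANA binding to the DNA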
[25] = target: Beta-galactosidase (Escherichia coli, UniProt Q8VNN2); assay: beta-galactosidase enzyme inhibitors and activators, dose response, artefact control for CCR6 antagonist project, biochemical, E. coli enzyme, set 3 (AID 504712); assay type: functional
[26] = system: H9c2; assay: cells; assay type: functional, cell-based; conditions: Rattus norvegicus, H9c2, Myocardium;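 also: confirmatory concentration-response retest of ultra-high-throughput screening hits for modulation of myocardial damage; cell death induced by hydrogen peroxide oxidative stress; compound pretreatment for 60 min then peroxide exposure for 2 h; potency is for protecting the cells against peroxide damage rather than for killing them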
[27] = inhibitors of intracellular T. cruzi replication, confirmation, NIH3T3 host cells, beta-gal luminescence (AID 2044); assay type: functional, cell-based;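 also: intracellular parasites grown in NIH/3T3 mouse fibroblasts as host cells; luminescent beta-galactosidase reporter signal from transgenic T. cruzi replicating inside host cells; inhibitors lower the luminescence signal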
[28] = system: Streptococcus; assay: Group A Streptococcus viability loss, dose response, counter-screen for streptokinase expression inhibitor project, luminescence, BacTiterGlo (AID 1915); assay type: functional, organism-based;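 also: potency for reduction of bacterial viability or growth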
[29] = system: Streptococcus sp. 'group A'; assay: growth inhibition of control SK(-) GAS strain, dose response, counter-screen for streptokinase expression inhibitor project, luminescence, kanamycin, BacTiterGlo, confirmation (AID 1900); assay type: functional, organism-based
[30] = target: T2, Microphthalmia-associated transcription factor (Homo sapiens, UniProt O75030); assay: TRPM1 promoter luciferase signal decrease, dose response, MITF inhibitor project, cell-based, SK-MEL-5, cherry-picked, set 3 (AID 493073); assay type: functional
T2 sequence (O75030 whole entry): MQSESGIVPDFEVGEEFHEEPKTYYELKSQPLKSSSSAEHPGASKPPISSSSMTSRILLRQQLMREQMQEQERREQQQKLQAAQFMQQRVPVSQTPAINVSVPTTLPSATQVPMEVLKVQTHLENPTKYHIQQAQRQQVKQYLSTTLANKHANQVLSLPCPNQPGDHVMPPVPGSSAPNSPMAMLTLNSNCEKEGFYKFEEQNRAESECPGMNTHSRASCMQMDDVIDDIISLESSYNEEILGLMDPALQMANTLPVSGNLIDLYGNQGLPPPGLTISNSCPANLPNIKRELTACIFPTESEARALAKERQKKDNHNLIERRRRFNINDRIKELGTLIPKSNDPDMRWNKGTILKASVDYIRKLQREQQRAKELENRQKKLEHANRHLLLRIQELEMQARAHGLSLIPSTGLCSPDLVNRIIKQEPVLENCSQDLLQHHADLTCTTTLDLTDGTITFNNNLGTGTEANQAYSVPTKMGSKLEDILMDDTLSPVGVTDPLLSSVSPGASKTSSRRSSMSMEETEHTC

[31] = growth suppression of beta-catenin-knockout colon cells, dose response, cell-based, HCT116, human colon tumor (AID 1045); assay type: functional;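 also: HCT116 colon tumor cells with beta catenin knocked out; cells exposed to compound for 60 hours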
[32] = growth suppression of PTEN-null colon cells, dose response, cell-based, HCT116 PTEN knockout (AID 1047); assay type: functional;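 also: HCT116 colon tumor cells with PTEN knocked out; cells exposed to compound for 60 hours before readout; potency for loss of cell viability measured by luminescence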
[33] = system: T-cell; assay: inhibitors of CD8+ T cell–vesicle binding, dose response, mouse 2C CD8+ T cells, flow cytometry (AID 485284); assay type: functional
[34] = target: T3, E3 ubiquitin-protein ligase XIAP (Homo sapiens, UniProt P98170); assay: Counter Screen using XIAP-Bir3 for Chemical Antagonists of Bir1/2 domains of IAP-family anti-apoptotic proteins. [Related pubchem assays (depositor defined):AID1018, AID1449, AID1514, AID1638, AID1749, AID1750, AID488957, AID488963]
[35] = target: T3, E3 ubiquitin-protein ligase XIAP; assay: XIAP antagonists, biochemical, IAP family, fluorescence polarization (AID 1018); assay type: functional
[36] = target: Alkaline phosphatase, placental type (Homo sapiens, UniProt P05187); assay: PLAP enzyme inhibitors, confirmation, biochemical, luminescence (AID 1512); assay type: functional
[37] = target: T4, Alkaline phosphatase, tissue-nonspecific isozyme (Homo sapiens, UniProt P05186); assay: human TNAP enzyme inhibitors, SAR follow-up, biochemical, luminescent, dose response (AID 1056)
T4 sequence (P05186 whole entry): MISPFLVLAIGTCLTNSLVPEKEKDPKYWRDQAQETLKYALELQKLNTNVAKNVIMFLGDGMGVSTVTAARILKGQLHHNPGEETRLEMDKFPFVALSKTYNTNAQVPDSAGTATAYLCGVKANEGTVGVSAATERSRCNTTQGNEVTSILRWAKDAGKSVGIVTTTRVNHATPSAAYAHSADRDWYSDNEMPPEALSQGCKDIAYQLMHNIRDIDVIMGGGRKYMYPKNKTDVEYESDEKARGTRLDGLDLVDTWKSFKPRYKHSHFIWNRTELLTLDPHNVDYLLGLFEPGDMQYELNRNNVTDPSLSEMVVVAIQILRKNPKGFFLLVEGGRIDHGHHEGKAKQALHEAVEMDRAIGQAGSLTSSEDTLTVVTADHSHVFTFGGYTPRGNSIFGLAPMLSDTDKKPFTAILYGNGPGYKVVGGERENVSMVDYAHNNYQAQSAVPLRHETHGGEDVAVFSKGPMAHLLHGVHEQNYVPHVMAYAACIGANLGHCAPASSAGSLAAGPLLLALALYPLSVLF

T3 sequence (P98170 whole entry): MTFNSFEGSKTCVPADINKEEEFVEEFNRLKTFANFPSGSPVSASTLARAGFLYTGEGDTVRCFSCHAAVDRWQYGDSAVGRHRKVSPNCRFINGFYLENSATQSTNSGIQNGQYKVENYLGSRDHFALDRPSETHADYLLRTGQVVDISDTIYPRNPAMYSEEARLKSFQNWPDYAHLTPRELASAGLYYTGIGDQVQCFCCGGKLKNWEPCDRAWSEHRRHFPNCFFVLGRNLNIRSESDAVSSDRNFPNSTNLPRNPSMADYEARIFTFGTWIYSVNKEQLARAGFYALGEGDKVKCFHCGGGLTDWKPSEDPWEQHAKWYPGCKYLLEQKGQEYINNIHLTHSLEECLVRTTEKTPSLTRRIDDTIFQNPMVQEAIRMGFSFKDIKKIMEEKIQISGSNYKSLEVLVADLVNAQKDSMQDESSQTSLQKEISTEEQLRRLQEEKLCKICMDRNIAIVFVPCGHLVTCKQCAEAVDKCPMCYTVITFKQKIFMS
Sequence of Alkaline phosphatase, placental type (P05187 whole entry): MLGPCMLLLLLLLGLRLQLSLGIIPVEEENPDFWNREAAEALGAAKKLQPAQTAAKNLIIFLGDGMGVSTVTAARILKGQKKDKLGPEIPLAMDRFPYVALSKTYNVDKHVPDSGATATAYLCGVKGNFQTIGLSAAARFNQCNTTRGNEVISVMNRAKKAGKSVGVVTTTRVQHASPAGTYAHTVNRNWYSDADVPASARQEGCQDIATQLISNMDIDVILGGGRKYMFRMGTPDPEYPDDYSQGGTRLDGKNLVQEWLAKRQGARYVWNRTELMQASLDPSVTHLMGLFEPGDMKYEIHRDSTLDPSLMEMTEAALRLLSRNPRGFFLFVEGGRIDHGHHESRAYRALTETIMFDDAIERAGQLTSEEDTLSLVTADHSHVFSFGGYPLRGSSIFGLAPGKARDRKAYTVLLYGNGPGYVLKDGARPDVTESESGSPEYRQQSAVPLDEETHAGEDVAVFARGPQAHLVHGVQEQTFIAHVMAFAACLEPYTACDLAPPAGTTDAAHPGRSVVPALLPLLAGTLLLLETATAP
Sequence of NACHT, LRR and PYD domains-containing protein 1 (Q9C000 1-1212 limits assumed): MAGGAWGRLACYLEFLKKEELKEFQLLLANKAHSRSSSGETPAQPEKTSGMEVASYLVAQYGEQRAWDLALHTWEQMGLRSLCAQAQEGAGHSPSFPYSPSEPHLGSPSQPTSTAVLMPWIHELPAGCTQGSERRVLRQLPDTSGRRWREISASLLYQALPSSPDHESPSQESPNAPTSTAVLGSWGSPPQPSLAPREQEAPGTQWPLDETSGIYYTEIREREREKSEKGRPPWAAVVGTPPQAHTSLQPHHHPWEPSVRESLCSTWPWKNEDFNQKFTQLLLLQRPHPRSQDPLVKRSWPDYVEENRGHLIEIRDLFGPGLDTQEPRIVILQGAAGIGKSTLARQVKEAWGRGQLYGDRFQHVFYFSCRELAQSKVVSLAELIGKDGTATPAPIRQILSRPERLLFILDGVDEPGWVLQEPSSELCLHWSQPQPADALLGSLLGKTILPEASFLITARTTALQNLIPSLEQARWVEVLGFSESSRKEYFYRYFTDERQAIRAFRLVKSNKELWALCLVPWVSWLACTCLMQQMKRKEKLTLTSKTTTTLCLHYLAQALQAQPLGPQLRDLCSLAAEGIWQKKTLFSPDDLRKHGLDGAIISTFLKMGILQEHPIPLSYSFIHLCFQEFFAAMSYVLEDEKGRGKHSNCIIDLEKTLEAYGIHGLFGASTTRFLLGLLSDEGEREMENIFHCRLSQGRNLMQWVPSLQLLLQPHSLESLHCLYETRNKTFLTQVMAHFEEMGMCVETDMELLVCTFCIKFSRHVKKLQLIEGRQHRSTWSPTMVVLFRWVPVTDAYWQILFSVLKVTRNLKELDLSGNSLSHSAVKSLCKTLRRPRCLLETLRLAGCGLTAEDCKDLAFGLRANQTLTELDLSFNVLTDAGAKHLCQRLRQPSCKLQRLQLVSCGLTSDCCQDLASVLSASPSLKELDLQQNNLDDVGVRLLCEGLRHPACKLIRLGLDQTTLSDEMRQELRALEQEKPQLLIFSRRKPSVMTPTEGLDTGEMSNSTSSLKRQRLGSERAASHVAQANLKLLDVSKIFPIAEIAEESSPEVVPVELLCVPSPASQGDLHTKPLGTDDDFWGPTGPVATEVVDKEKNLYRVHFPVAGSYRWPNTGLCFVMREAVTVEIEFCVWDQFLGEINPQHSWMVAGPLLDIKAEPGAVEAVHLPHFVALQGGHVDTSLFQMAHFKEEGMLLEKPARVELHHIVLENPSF
Sequence of NACHT, LRR and PYD domains-containing protein 1 (Q9C000 1213-1473 limits assumed): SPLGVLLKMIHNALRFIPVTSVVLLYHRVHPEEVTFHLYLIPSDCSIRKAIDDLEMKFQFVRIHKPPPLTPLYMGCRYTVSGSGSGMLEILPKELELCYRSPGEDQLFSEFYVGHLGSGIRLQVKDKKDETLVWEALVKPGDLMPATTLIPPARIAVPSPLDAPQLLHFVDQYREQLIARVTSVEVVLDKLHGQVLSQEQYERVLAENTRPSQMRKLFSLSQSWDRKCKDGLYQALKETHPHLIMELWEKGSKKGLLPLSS
Sequence of Beta-galactosidase (Q8VNN2 whole entry): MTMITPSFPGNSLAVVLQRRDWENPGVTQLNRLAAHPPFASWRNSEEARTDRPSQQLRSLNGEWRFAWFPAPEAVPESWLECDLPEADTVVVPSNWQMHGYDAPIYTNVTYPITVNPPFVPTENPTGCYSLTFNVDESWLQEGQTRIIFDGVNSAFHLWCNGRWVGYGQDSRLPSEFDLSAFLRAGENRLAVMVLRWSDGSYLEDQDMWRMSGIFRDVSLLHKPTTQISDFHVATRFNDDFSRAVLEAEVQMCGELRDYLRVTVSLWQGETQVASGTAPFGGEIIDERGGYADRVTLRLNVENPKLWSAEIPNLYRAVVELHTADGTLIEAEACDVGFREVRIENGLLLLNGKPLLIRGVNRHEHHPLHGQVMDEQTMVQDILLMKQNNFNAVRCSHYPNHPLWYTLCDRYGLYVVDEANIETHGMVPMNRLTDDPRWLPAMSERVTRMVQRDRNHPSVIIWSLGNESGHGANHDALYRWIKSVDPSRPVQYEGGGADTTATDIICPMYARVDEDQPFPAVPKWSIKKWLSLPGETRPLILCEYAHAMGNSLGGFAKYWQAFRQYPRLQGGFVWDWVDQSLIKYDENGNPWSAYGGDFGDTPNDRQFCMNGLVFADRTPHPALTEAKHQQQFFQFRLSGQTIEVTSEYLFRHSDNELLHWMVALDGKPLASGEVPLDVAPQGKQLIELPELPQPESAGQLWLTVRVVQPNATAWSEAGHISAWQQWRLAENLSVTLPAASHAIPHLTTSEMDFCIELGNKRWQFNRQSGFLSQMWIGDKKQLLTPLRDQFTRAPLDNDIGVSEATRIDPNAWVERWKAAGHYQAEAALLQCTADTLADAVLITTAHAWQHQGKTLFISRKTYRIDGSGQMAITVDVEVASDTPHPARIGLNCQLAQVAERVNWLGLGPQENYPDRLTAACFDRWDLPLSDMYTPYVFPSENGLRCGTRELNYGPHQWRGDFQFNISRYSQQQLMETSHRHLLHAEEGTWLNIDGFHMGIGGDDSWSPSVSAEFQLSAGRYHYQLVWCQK
Sequence of G-protein coupled receptor 55 (Q9Y2T6 whole entry): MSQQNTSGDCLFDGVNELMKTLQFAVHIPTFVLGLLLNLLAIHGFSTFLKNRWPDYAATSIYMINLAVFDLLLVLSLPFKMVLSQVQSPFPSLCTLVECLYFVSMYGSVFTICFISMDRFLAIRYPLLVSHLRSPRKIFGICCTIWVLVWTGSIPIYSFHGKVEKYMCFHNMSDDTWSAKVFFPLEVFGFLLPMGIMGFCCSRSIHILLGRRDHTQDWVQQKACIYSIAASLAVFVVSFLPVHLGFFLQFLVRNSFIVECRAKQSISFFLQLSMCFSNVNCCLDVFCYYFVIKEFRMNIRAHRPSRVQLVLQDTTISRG
Sequence of CAAX prenyl protease 2 (Q03530 whole entry): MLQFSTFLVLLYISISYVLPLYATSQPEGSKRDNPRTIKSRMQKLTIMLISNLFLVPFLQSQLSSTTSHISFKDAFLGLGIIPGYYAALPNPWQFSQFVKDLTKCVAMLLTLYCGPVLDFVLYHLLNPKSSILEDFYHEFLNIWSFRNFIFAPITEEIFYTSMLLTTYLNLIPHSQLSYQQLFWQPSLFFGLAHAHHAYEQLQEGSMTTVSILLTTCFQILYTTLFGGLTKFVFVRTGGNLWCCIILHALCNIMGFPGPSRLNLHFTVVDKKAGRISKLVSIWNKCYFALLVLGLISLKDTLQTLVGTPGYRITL
Sequence of Trypsin (P00761 whole entry): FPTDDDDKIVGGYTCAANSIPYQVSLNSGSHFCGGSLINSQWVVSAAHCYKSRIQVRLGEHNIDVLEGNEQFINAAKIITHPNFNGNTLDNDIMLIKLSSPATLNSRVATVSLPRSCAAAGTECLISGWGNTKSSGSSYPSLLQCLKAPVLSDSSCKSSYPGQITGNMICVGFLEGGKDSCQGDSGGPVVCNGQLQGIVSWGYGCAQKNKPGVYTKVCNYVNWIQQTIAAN

## CCOC(=O)c1cc(C#N)c(Oc2ccc(F)cc2)nc1-c1ccccc1
[1]
  IC50: 3.03 µM (active)

## COC(=O)C1CC23C=CCN4CCC5(c6ccccc6NC15C2C)C43 (stereo unspecified)
[2]
  EC50: 7.37 µM (active)
[3]
  EC50: 1.07 µM (active)
[4]
  EC50: 1.13 µM (inconclusive)
[5]
  EC50: 0.134 µM (active)
[6]
  EC50: 1.07 µM (inconclusive)
[7]
  EC50: 4.2 µM (active)
[8]
  EC50: 1.13 µM (active)
[9]
  EC50: 7.77 µM (active)
[10]
  EC50: 2.28 µM (active)
[11]
  EC50: 0.574 µM (inconclusive)
[12]
  EC50: 7.37 µM (inconclusive)
[13]
  EC50: 0.495 µM (active)
[14]
  EC50: < 0.104 µM (active)
[15]
  EC50: 0.612 µM (active)

## COc1ccc(C2CC(c3ccccc3)=NN2C(=O)c2ccc(Cl)c([N+](=O)[O-])c2)cc1 (stereo unspecified)
[16]
  AC50: 77.7 µM (active)
[17]
  EC50: 32.6 µM (active)
[18]
  AC50: 26.1 µM (active)

## CC1=C(C(=O)O)N2C(=O)C(NC(=O)CCCC(=O)O)C2SC1 (stereo unspecified)
[19]
  IC50: > 50 µM (inactive)
[20]
  IC50: > 56.8 µM (not active)

## CCN(C(=O)COC(=O)c1cccnc1Nc1cccc(C(F)(F)F)c1)C1CCS(=O)(=O)C1 (stereo unspecified)
[21]
  IC50: > 100 µM (inactive)
[22]
  IC50: > 100 µM (inactive)

## O=C(NC12CC3CC(CC(C3)C1)C2)N1CCN(c2ncccn2)CC1
[23]
  AC50: 210 µM (active)
[24]
  AC50: 81.5 µM (active)

## CC(=O)c1ccc(NC(=O)Nc2ccc(Cl)cc2)cc1
[21]
  IC50: 35.9 µM (active)
[22]
  IC50: 2.98 µM (active)

## Cc1cc(C)c(OCC(=O)Nc2nc(-c3ccccn3)cs2)c(C)c1
[25]
  IC50: > 66.6 µM (inactive)
[26]
  IC50: 10 µM (active)
[27]
  EC50: 2.47 µM (active)
[17]
  EC50: 8.87 µM (active)
[28]
  EC50: 5.71 µM (active)
[29]
  EC50: 2.75 µM (active)

## CC(=O)O[C@@]12CO[C@@H]1C[C@H](O)[C@@]1(C)C(=O)[C@H](O)C3=C(C)[C@@H](OC(=O)[C@H](O)[C@@H](NC(=O)c4ccccc4)c4ccccc4)C[C@](O)([C@@H](OC(=O)c4ccccc4)[C@H]21)C3(C)C
[2]
  EC50: 2.3 µM (active)
[3]
  EC50: 0.692 µM (active)
[4]
  EC50: 2.02 µM (inconclusive)
[6]
  EC50: 73.1 µM (inconclusive)
[8]
  EC50: 2.4 µM (active)

## CC1=NOC(=O)/C1=C\c1ccc(-c2cccc(Cl)c2)o1
[25]
  IC50: > 66.6 µM (inactive)
[30]
  AC50: 5.36 µM (active)
[31]
  EC50: 11.8 µM (active)
[32]
  EC50: 14.5 µM (active)
[1]
  IC50: 8.52 µM (active)

## COC(=O)c1ccccc1NC(=O)C1CCN(C(=O)c2cc(OC)cc(OC)c2)CC1
[33]
  EC50: 0.641 µM (active)

## COc1ccc2c(C)cc(SCC(=O)Nc3ccc(Cl)cn3)nc2c1
[34]
  IC50: > 100 µM (inactive)
[35]
  IC50: > 100 µM (not active)

## Cc1cccc(-c2nc3c(c(SCC(=O)c4ccc(O)c(O)c4)n2)CCCC3)c1
[36]
  IC50: > 100 µM (inactive)
[37]
  IC50: 78.5 µM (active)

## CCOc1ccccc1NC(=O)C1=C(C)NC(=S)NC1c1cccs1 (stereo unspecified)
[34]
  IC50: > 100 µM (inactive)
[35]
  IC50: > 100 µM (not active)

## COc1ccc(-n2c(SCC(=O)c3ccc(O)c(O)c3)nnc2-c2ccc(C)cc2)cc1
[36]
  IC50: 5.84 µM (active)
[37]
  IC50: > 100 µM (inactive)
